According to PMC7226613, “Antikinetoplastid Activity of Indolocarbazoles from Streptomyces sanyensis” (Biomolecules, 2020):
Where two headings read alike, the source gives them in different places.

Experiments:
[1] = Cytotoxicity assay (AlamarBlue); conditions: mouse
Method: (§3) After 24 h, cell viability was determined using AlamarBlue® method [24]. Miltefosine (Cayman Chemicals, Vitro SA, Madrid, Spain) and benznidazole (Sigma-Aldrich, Madrid, Spain) were used as reference drugs.
(§4) All experiments were performed three times, in duplicates for each concentration tested, and the mean values were also calculated. A Tukey test was used for analysis of the data.

[2] = test system: epimastigote of T. cruzi (Y strain); assay: Trypanocidal capacity assay, epimastigotes (AlamarBlue); conditions: 72 h; for IC50: Trypanosoma cruzi, read-out: T. cruzi IC50; for T. cruzi IC50: epimastigotes, mean ± SD
Method: Epimastigotes were cultured in Liver Infusion Tryptose (LIT) medium supplemented with 10% FBS at 26 °C and were grown to the log phase for use in further experiments.
The assay was carried out in vitro against epimastigote stage of T. cruzi. […] Benznidazole (Sigma-Aldrich, Madrid, Spain) was used as a reference drug.
as §4

[3] = test system: macrophage J774A.1 cell line; assay: Cytotoxicity assay (AlamarBlue); conditions: 24 h, AlamarBlue, mean ± SD
Method: as §3, §4

[4] = test system: promastigotes of L. amazonensis (MHOM/BR/77/LTB0016); assay: Leishmanicidal capacity assay, promastigotes (AlamarBlue); assay type: cell-based, Leishmania amazonensis; conditions: for IC50 / L. amazonensis IC50: promastigotes, 72 h, mean ± SD
[5] = test system: promastigotes of L. donovani (MHOM/IN/90/GE1F8R); assay: as above; assay type: cell-based, Leishmania donovani; conditions: 72 h, mean ± SD; for IC50: Leishmania donovani
[6] = test system: L. amazonensis promastigotes; assay: Mitochondrial membrane potential (JC-1); assay type: cell-based, Leishmania amazonensis; conditions: IC90 (8.36 µM), 24 h
Method: (§1) The decrease in the mitochondrial membrane potential was detected using a JC-1 Mitochondrial Membrane, Potential Assay Kit, Cayman Chemical. […] The pellet was resuspended in JC-1 buffer. After that, 100 µL of each treated culture was added to a black 96-well plate (PerkinElmer) and 10 µL of JC-1 was added, and the plate was incubated for half an hour at 26 °C. Green and red fluorescence intensity was measured using an Enspire microplate reader (PerkinElmer, Massachusetts, USA) for 30 min. In addition, the depolarization of the mitochondrial membrane potential was confirmed by microscopic observation using EVOS FL Cell Imaging System AMF4300, Life Technologies, USA.

[7] = test system: L. donovani promastigotes; assay: Mitochondrial membrane potential (JC-1); assay type: cell-based, Leishmania donovani; conditions: IC90, 24 h
Method: as §1

T. cruzi epimastigotes = assay: Mitochondrial membrane potential (JC-1); assay type: cell-based, Trypanosoma cruzi; conditions: IC90, 24 h
Method: as §1

L. amazonensis = assay: Plasma membrane permeability (SYTOX Green); assay type: cell-based, Leishmania amazonensis; conditions: IC90, 24 h
Method: (§2) The SYTOX® Green assay was performed to detect the membrane permeability alterations in parasites. […] SYTOX® Green was added at a final concentration of 1 μM (Molecular Probes).

L. donovani = assay: Plasma membrane permeability (SYTOX Green); assay type: cell-based, Leishmania donovani; conditions: IC90, 24 h
Method: as §2

T. cruzi = assay: Plasma membrane permeability (SYTOX Green); assay type: cell-based, Trypanosoma cruzi; conditions: IC90, 24 h
Method: as §2

[8] = test system: promastigotes of L. donovani; assay: Microscopic morphology of treated promastigotes; assay type: cell-based, Leishmania donovani; conditions: 10 µM; flagellar pocket increased, invagination of plasma membrane
[9] = test system: L. amazonensis amastigotes; assay: Anti-amastigote activity, intra-macrophage stage in J774A.1; conditions: for Selectivity Index (CC50/IC50): CC50 J774A.1 / IC50 L. amazonensis amastigotes; for IC50: Leishmania amazonensis, J774.A1, read-out: L. Amazonensis Amastigotes IC50
Method: The anti-amastigote activity was measured according to Jain et al. [26]. […] After one hour of incubation, 100 µL of stationary phase promastigotes of 7-day-old culture was added in a 10:1 ratio (2 × 10^6/mL) and the plates were re-incubated at 37 °C for 24 h to achieve a maximum infection. […] Separately, and in a 96-deep well plate, a serial dilution of the selected compounds was made with the same medium and then 50 μL of each dilution was added to each well. The plates were incubated at 37 °C, 5% CO2 for 24 h. After this incubation, we removed the medium from each well and 30 μL of Schneider medium containing 0.05% SDS was added to each well. The plate was shacked for 30 s and 170 μL of Schneider medium were added to each well. AlamarBlue® at 10% was added into each well and incubated at 26 °C for 72 h. […] Miltefosine (Cayman Chemicals, Vitro SA, Madrid, Spain) was used as reference drug.
as §4

protein kinase C (PKC) = conditions: cited from earlier work
phosphorylase kinase = conditions: cited from earlier work
protein kinase A (PKA) = conditions: cited from earlier work
[10] = test system: macrophage J774A.1 cell line
Method: as §3, §4

in vitro = conditions: mouse
Method: as §3, §4

## O=C(Cn1ccnc1[N+](=O)[O-])NCc1ccccc1 [Benznidazole]
[1]; J774A.1 macrophage cell line
  CC50 at 24 h: 400 ± 4 µM
[2]
  IC50: 6.94 ± 1.94 µM

## CN[C@@H]1C[C@H]2O[C@@](C)([C@@H]1OC)n1c3ccccc3c3c4c(c5c6ccccc6n2c5c31)C(=O)NC4 [Compound 1, staurosporine]
[3]; read-out: Macrophage J774A.1 CC50
  CC50: 8.74 ± 0.72 µM
[2]
  IC50: 3.63 ± 0.77 µM

## CN[C@@H]1C[C@H]2O[C@@](C)([C@@H]1OC)n1c3ccccc3c3c4c(c5c6ccccc6n2c5c31)C(=O)NC4=O [Compound 2, 7-oxostaurosporine]
[4]; Leishmania amazonensis
  IC50: 3.58 ± 1.1 µM
[4]; Leishmania amazonensis, read-out: IC90 concentration, L. amazonensis promastigotes
  IC90: 8.36 µM
[5]
  IC50: 0.56 ± 0.06 µM
[6]
  effect on mitochondrial membrane potential (ΔΨm): intense effect
[7]
  effect on mitochondrial membrane potential (ΔΨm): did not observe any change
T. cruzi epimastigotes
  effect on mitochondrial membrane potential (ΔΨm): did not observe any change
L. amazonensis
  cytoplasmic membrane permeability: does not seem to be permeable
L. donovani
  cytoplasmic membrane permeability: remarkable membrane alteration
T. cruzi
  cytoplasmic membrane permeability: remarkable membrane alteration
[8]
  morphological changes of parasites: morphological changes
[1]
  CC50 at 24 h: 5.2 ± 1.75 µM
[2]
  IC50: 1.58 ± 0.52 µM
[9]
  Selectivity Index (CC50/IC50): 52
  IC50: 0.1 µM

## CO[C@@H]1C(=O)C[C@H]2O[C@]1(C)n1c3ccccc3c3c4c(c5c6ccccc6n2c5c31)C(=O)NC4 [Compound 3, 4′-demethylamino-4′-oxostaurosporine]
[4]; Leishmania amazonensis
  IC50: 17.1 ± 4.78 µM
[5]
  IC50: > 40 µM
[1]; J774A.1 macrophage cell line
  CC50 at 24 h: > 40 µM
[3]
  Macrophage J774A.1 CC50: low toxicity
[2]
  IC50: 17.1 ± 1.64 µM
[9]
  IC50: 2.03 ± 0.27 µM

## COC1=C(C)O[C@@H]2C[C@@]1(OC)n1c3ccccc3c3c4c(c5c6ccccc6n2c5c31)C(=O)NC4 [Compound 4, streptocarbazole B]
[4]; Leishmania amazonensis
  IC50: 10.4 ± 0.21 µM
[5]
  IC50: > 40 µM
[1]; J774A.1 macrophage cell line
  CC50 at 24 h: > 40 µM
[3]
  Macrophage J774A.1 CC50: low toxicity
[2]
  IC50: 12.5 ± 2.06 µM
[9]
  IC50: 2.47 ± 0.09 µM

## CO[C@H]1[C@H](O)[C@@H](O)[C@H](n2c3c(Cl)cccc3c3c4c(c5c6cccc(Cl)c6[nH]c5c32)C(=O)NC4=O)O[C@@H]1CO [Compound 5, rebeccamycin]
[4]; Leishmania amazonensis
  IC50: > 40 µM
[4]
  L. amazonensis IC50: completely inactive
[5]
  L. donovani IC50: completely inactive
  IC50: > 40 µM
Protein kinase C (PKC)
  inhibitory effect on PKC: no inhibitory effect
[1]; J774A.1 macrophage cell line
  CC50 at 24 h: 1.42 ± 0.19 µM
[2]
  IC50: > 40 µM
  T. cruzi IC50: completely inactive

## COC(=O)[C@@]1(O)C[C@H]2O[C@]1(C)n1c3ccccc3c3c4c(c5c6ccccc6n2c5c31)C(=O)NC4 [Compound 6, K252a]
[4]; Leishmania amazonensis
  IC50: 5.9 ± 0.96 µM
[5]
  IC50: 8.09 ± 1.12 µM
Phosphorylase kinase
  IC50: 0.0017 µM
Protein kinase A (PKA)
  IC50: 0.14 µM
[1]
  CC50 at 24 h: 1.07 ± 0.21 µM
[2]
  IC50: 4 ± 0.24 µM

## C[C@]12O[C@H](C[C@]1(O)C(=O)O)n1c3ccccc3c3c4c(c5c6ccccc6n2c5c31)CNC4=O [Compound 7, K252b]
[4]; Leishmania amazonensis
  IC50: 20.6 ± 4.5 µM
[5]
  IC50: 4.45 ± 0.71 µM
[10]
  Macrophage J774A.1 CC50: low toxicity
In vitro
  CC50 at 24 h: > 40 µM
[2]
  IC50: 7.41 ± 0.93 µM

## O=C1NCc2c1c1c3ccccc3[nH]c1c1[nH]c3ccccc3c21 [Compound 8, K252c]
[4]; Leishmania amazonensis
  IC50: > 40 µM
[4]
  L. amazonensis IC50: completely inactive
[5]
  L. donovani IC50: completely inactive
  IC50: > 40 µM
[1]; J774A.1 macrophage cell line
  CC50 at 24 h: 35.4 ± 2.47 µM
[3]
  Macrophage J774A.1 CC50: low toxicity
[2]
  IC50: > 40 µM
  T. cruzi IC50: completely inactive

## O=C1NC(=O)c2c1c1c3ccccc3[nH]c1c1[nH]c3ccccc3c21 [Compound 9, arcyriaflavin A]
[4]; Leishmania amazonensis
  IC50: > 40 µM
[4]
  L. amazonensis IC50: completely inactive
[5]
  L. donovani IC50: completely inactive
  IC50: > 40 µM
[10]
  Macrophage J774A.1 CC50: low toxicity
In vitro
  CC50 at 24 h: > 40 µM
[2]
  IC50: > 40 µM
  T. cruzi IC50: completely inactive

## CCCCCCCCCCCCCCCCOP(=O)([O-])OCC[N+](C)(C)C [Miltefosine]
[5]
  IC50: 3.32 ± 0.27 µM
[1]; J774A.1 macrophage cell line
  CC50 at 24 h: 72.2 ± 3.06 µM
[9]
  Selectivity Index (CC50/IC50): 23
